Series [1] deals with human dermal microvascular endothelial cells (HDME cells). Put plainly: Endothelial cell injury assay (51Cr release), authentic peroxynitrite. In kind it is cell-based. To be noted: 45 min, peroxynitrite 0-800 uM. On the procedure:
FIG. 5: Peroxynitrite-mediated human microvascular endothelial cell injury. Authentic peroxynitrite was overlaid directly onto to ^51 Cr-labeled HMDE cells grown in 96-well cell culture plates. After 45 min the amount of specific cell injury was determined and correlated to peroxynitrite concentration by least squares regression line. Values represent the average of three replicates +/-SEM.
FIG. 6: Peroxynitrite catalysts, Fe(TMPyP) (triangle) and Ni(II)dienoN4)PF6 (circle) were added to HDME cells in the cell injury assay immediately before the addition of authentic peroxynitrite. After 45 min, the amount of specific cell injury was assessed by the amount of radiolabel released into the medium. Values represent the average of three replicas +/-SEM. *p<0.01 vs. 0 uM control by Dunnett's t Test.
[…]: Human recombinant tumor necrosis factor-alpha (TNF-a) was obtained from Genzyme Corporation, Cambridge, MA. Human recombinant complement C5a and L-arginine (L-arg) was purchased from Sigma Chemical Company, St. Louis, Mo. Authentic peroxynitrite in 50 mM NaOH was prepared as described above. […]
Endothelial Cell Injury Assays: The cytotoxic effects of stimulated neutrophils or peroxynitrite on endothelial cells was determined using a ^51 Cr-release assay as described by Moldow (Moldow et. al. Methods Enzymol., 105, 378-385, [1984]). […]

A further series relates to RAW 264.7 cells. In words: Cell protection assay, Alamar Blue viability after peroxynitrite challenge. It is filed as cell-based, murine. Conditions: RAW 264.7; PN dose of FIG. 8 experiment. On the procedure:
FIG. 8: Comparison of Ni and Fe Catalyst Protection of RAW Cells from PN(peroxynitrite)-mediated Injury. RAW 264.7 cells were plated at approximately 2×10^5 per well of a 96-well plate. […] Each condition represents the mean of 4 wells ±sem.
FIG. 9: Protection from PN-mediated RAW Cell Injury by Fe Catalysts. Cells were treated with 500 micromolar PN in the presence or the absence of the following catalysts: FeTMPyP, FeTMPS, FeTPPS. Cell viability was monitored as described in the text and figure legends 1, 2 and 3. Values represent the mean of 4 determinations ±sem.
(§1) Protocol for Cell Protection Assays using Peroxynitrite Decomposition Catalysts: A cell viability assay was established to rapidly assess the efficacy of peroxynitrite(PN) catalysts in protecting cells from PN25 mediated injury and death. The peroxynitrite challenge consisted of a pulse of synthetic PN added exogenously to cells. In order to better assess the efficacy of PN catalysts in protecting cells from PN-mediated damage, a quantity of peroxynitrite(in 50 mM NaOH) determined to cause maximal injury(100%) was added as an exogenous pulse to each well of cells in the presence or absence of catalyst. The NaOH vehicle was not toxic by itself.
Cells(RAW 264.7 cells or P815 mastocytoma cells; American Type Culture Collection, Rockville, Md.) were plated to confluence on 96-well tissue culture plates. Each well is washed twice with Dulbecco's phosphate buffered saline(DPBS; GIBCO BRL, Grand Island, N.Y.) to remove protein and other serum components which might react with the exogenous peroxynitrite. To each well is then added 200 μl of DPBS. PN is next placed into separate wells at increasing concentrations and cell viability monitored. The dose at which maximal cell death is attained is then utilized for the catalyst protection assessment.
Phosphate-buffered saline (200 uL) containing increasing concentrations of catalyst is next placed into individual wells of cells. The maximal dose of PN is subsequently administered to all wells of cells. After 15 minutes, the medium is removed from each well and the cells are either allowed to recover overnight in Earles minimum essential medium without phenol red and supplemented with 10% fetal bovine serum or alternatively the plate of cells is assayed that day for mitochondrial integrity using the Alamar Blue viability assay(Alamar Biosciences, Inc.; Sacramento, Calif.). In either case, cells are incubated at 37° C. in 5% CO2.
Cell injury is measured as follows. Briefly, 10% Alamar Blue(v/v) in Earles MEM with 10% FBS is added to each well of cells for 1-2h. Cell metabolism of the dye generates a fluorescent product which is directly related to the number of viable cells. Moreover, the production of the fluorescent metabolite is linear for over 2 h. The amount of fluorescent product in 100 μl of conditioned medium from each well of cells is then measured with an IDEXX fluorescent plate reader (gain setting of 1%) at an emission wavelength of 575 nm after exciting at 545 nm. Viability is either given as absolute fluorescent units or as a percent of the value obtained for untreated cells(100%).
(Resazurin is reduced to fluorescent resorufin, in cell work by metabolically active cells.)

A further series deals with RAW and P815 cells. In words: Comparison of increasing PN doses on RAW and P815 cells. It is filed as cell-based, murine. To be noted: data not shown. On the procedure: as §1
Cells(RAW 264.7 cells or P815 mastocytoma cells; American Type Culture Collection, Rockville, Md.) were plated to confluence on 96-well tissue culture plates. Each well is washed twice with Dulbecco's phosphate buffered saline(DPBS; GIBCO BRL, Grand Island, N.Y.) to remove protein and other serum components which might react with the exogenous peroxynitrite. […] PN is next placed into separate wells at increasing concentrations and cell viability monitored. […]
Cell injury is measured as follows. […] The amount of fluorescent product in 100 μl of conditioned medium from each well of cells is then measured with an IDEXX fluorescent plate reader (gain setting of 1%) at an emission wavelength of 575 nm after exciting at 545 nm. […]

The nature of series [2]: Natural background decomposition of peroxynitrite. In kind it is physicochemical. To be noted: 22 ° C, 100 mM potassium phosphate pH=7.4.
Procedure: Kinetic measurements were made on an OLIS Rapid Scanning Stopped-Flow Spectrometer (On-Line Instrument Systems Inc., Bogart, Ga.)) using the OLISRSM-1000 Operating system for data acquisition and manipulation.
Thus, in a typical experiment the natural background decomposition rate of sodium peroxynitrite was determined as follows. A 24 mM stock solution of sodium peroxynitrite in 50 mM NaOH is load into the small volume syringe and 100 mM potassium phosphate pH=7.4 is charged into the large volume syringe of the stopped-flow spectrophotometer. All stopped -flow measurements were made at 22 ° C. Injection of the solutions into the sample compartment results in ~25 fold dilution of the stock sodium peroxynitrite. […] To test for catalytic peroxynitrite decomposition activity, the metal complex was dissolved in 100 mM potassium phosphate buffer pH=7.4 and loaded into the large syringe and the decomposition of peroxynitrite was monitored as described above. The catalytic rate constant (kcat M-1 sec^-1) for the complexes tested was determined by varying the complex concentration and plotting kobs vs [complex] […] The kobs were obtained from averages of three stopped flow analysis at each catalyst concentration.
For series [3] the following is noted: Beckman et al. 1990, cited from earlier work.
For a further series, the system named is CuZnSOD. In words: Inactivation of CuZnSOD by peroxynitrite (stopped flow superoxide dismutase activity). Conditions: peroxynitrite 0-100 uM.

Where two headings read alike, the source gives them in different places.

Procedure for CuZnSOD: Stock solutions of bovine liver CuZnSOD (DDI Pharmaceuticals Inc., Mountain View CA) were prepared by dissolving -1.0 mg of enzyme in 10 mL of 50 mM potassium phosphate buffer at a pH=7.4. […] All kobs were the average of triplicate runs using a stopped flow spectrophotometer manufactured by Kinetic Instruments Inc. (Ann Arbor, Mich.) and was interfaced to a MAC IICX personal computer.
Inactivation of CuZn SOD by peroxynitrite.
Inactivation of peroxynitrite was performed by aloquating 1.0 mL of stock CuZn SOD solution into 50 mM potassium phosphate buffer pH=7.4 such that a final assay volume of 10 mL is achieved after addition of peroxynitrite and EDTA solutions. To these assay solution was added various amounts of peroxynitrite (25 mM stock solution) such that the final concentration of peroxynitrite in the assay varied from 0, 25, 50, 75 and 100 uM. After the addition of peroxynitrite, 100 uL of a 2.5 mM stock EDTA solution was added to each assay solution such that the final concentration of EDTA was 250 uM. Each solution was then assayed by stopped flow analysis for superoxide dismutase activity.

Consider `O=NOO` [peroxynitrite, sodium peroxynitrite], for which the “endothelial cell injury by peroxynitrite” value in series [1] was “dose dependent increase in cell injury”. Further, the “decrease in cell viability caused by PN” value in the series with RAW 264.7 cells is 50%. The “differential susceptibility of RAW and P815 cells to peroxynitrite-mediated injury” value in the series with RAW and P815 cells is reported as “no evidence for a differential susceptibility to peroxynitrite-mediated injury”. For the same compound, in series [2], the “kobs of decomposition of sodium peroxynitrite” value was 1.39×10^-1±0.15 sec^-1 and the “t1/2 of decomposition of sodium peroxynitrite” value came out at 5.2 see. The “t1/2 of decomposition of sodium peroxynitrite” value in series [3] (37° C, pH=7.4) is 1.9 s. The “observed rate for the decomposition of peroxynitrite” value in series [3] (pH 7.4, 37° C) is listed as 3.6×10^-1 sec-i. Besides, the “inactivation of CuZnSOD” value in the series on CuZnSOD is “inactivates CuZnSOD enzyme in a concentration dependant manner”.

Source of the values: patent US6245758A, “Methods of use for peroxynitrite decomposition catalysts, pharmaceutical compositions therefor” (priority 1996, dated 2001).
